Key:
p-STAT3 = target: T1, p-STAT3 (Homo sapiens, UniProt P40763); assay: immunofluorescence staining of SW480 xenograft tissue, p-STAT3; format: in vivo; conditions: nude mice, oral daily, 14 doses, Compound A 100 mg/kg, Compound B 50 mg/kg, FIG. 6A
T1 construct: from tissue; host or cells: human SW480 colon cancer xenograft tumours grown in female nude mice

STK33 = target: T2, STK33 (Homo sapiens, UniProt Q9BYT3); assay: immunofluorescence staining of SW480 xenograft tissue, STK33; format: in vivo; conditions: nude mice, oral daily, 14 doses, Compound A 100 mg/kg, Compound B 50 mg/kg, FIG. 6B
T2 construct: from tissue; host or cells: human SW480 colon cancer xenograft tumours grown in female nude mice
T2 sequence (Q9BYT3 whole entry): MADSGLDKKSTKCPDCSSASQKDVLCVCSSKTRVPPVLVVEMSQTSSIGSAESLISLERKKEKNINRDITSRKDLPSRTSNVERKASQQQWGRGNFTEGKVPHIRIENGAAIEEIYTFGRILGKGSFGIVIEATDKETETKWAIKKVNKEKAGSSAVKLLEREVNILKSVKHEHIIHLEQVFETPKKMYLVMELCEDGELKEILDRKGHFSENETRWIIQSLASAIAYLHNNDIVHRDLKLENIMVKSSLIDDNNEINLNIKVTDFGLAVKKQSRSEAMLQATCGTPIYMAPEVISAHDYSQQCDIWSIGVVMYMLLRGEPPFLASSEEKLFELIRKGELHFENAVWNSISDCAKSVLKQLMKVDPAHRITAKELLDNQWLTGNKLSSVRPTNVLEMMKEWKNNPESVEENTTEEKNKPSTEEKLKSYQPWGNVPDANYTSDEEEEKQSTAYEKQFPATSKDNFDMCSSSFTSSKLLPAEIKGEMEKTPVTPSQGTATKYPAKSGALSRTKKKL
Protocol: (§1) The effect of a treatment combination of Compound A and Compound B on the levels of various pharmacodynamic (PD) markers for the agents in vivo was studied. A mouse xenograft model of human colon cancer (SW480) was used.
(§2) Levels of STK33 and Nanog were examined using immunofluorescence staining of the xenograft tissue. Female nude mice were inoculated subcutaneously with 8×10^6 human SW480 colon cancer cells. Animals were treated orally daily with vehicle, Compound A (100 mg/kg), Compound B (50 mg/kg), or Compound A and Compound B (100 mg/kg and 50 mg/kg, respectively) for a total of 14 doses. At the end of treatment, the tumors were harvested from euthanized mice. Part of the dissected tumors were fixed overnight in 3.7% neutral buffered formaldehyde at 4° C., and then paraffin embedded, cut to four micron sections, and affixed onto positively charged slides. After being baked and deparaffinized, the slides with tumor or control tissues were incubated in 10mM pH6.0 sodium citrate solution for antigen retrieval at 98° C. […] After being mounted with ProLong mounting medium containing DAPI (Invitrogen), the slides were examined on a Zeiss Axis Imager M2 upright fluorescence microscope with a 20× objective and analyzed with Zen software.

Nanog = assay: immunofluorescence staining of SW480 xenograft tissue, Nanog; format: in vivo, human; conditions: nude mice, oral daily, 14 doses, Compound A 100 mg/kg, Compound B 50 mg/kg, FIG. 6B
Protocol: as §1, §2

STAT3 pathway = conditions: according to U.S. Pat. No. 8,877,803; read-out: STAT3 pathway activity, cellular IC50; cited from earlier work

T1 sequence (P40763 whole entry): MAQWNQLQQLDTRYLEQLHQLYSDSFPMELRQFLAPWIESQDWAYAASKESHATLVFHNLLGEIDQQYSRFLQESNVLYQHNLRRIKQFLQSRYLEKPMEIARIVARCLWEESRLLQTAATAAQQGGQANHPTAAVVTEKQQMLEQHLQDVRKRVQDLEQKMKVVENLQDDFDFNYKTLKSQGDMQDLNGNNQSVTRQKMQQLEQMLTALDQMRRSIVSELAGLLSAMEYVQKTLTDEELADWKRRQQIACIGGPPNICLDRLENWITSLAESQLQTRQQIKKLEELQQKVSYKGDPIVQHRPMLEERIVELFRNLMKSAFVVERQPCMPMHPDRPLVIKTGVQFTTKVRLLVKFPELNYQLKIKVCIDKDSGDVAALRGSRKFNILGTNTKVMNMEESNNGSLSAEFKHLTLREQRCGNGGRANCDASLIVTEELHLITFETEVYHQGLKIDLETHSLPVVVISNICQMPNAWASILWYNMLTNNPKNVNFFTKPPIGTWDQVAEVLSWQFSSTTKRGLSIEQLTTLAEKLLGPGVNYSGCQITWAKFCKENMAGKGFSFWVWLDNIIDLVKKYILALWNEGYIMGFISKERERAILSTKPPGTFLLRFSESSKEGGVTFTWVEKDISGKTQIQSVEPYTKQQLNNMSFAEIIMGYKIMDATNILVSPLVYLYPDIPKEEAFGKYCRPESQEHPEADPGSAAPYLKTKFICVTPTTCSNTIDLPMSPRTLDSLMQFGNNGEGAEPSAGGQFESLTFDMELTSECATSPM

Row | SMILES | cellular levels of p-STAT3 in xenograft tissue (p-STAT3) | cytoplasmic levels of STK33 in xenograft tissue (STK33) | cytoplasmic levels of Nanog in xenograft tissue (Nanog) | IC50 (STAT3 pathway) [nM] | nuclear levels of STK33 in xenograft tissue (STK33) | nuclear levels of Nanog in xenograft tissue (Nanog)
1 | CC(=O)c1cc2c(o1)C(=O)c1ccccc1C2=O [Compound A, 2-acetylnaphtho[2,3-b]furan-4,9-dione] | significantly reduced | reduced | reduced | ~250 | – | –
2 | CCN(CC)CCNC(=O)c1c(C)[nH]c(/C=C2\C(=O)Nc3ccc(-c4csc(-c5ccccc5)n4)cc32)c1C [Compound B] | – | – | – | – | reduced | reduced

Source: patent US20180250261A1, “METHOD FOR TREATING CANCER WITH A STAT3 PATHWAY INHIBITOR AND KINASE INHIBITOR” (BOSTON BIOMEDICAL, INC., priority 2015, published 2018)
